According to EP1311486B1, “USES OF THALIPORPHINE OR ITS DERIVATIVES IN TREATMENT OF CARDIAC DISEASES AND PREPARATION OF SAME” (Lotus Pharmaceutical Co., Ltd., priority 2000, dated 2002):

Legend:
[1] = test system: Human low density lipoprotein (LDL); experiment: Copper-induced lipid peroxidation of LDL (TBARS formation); format: biochemical; conditions: LDL 100µg/ml, 37°C, CuSO4 12 hours
Protocol: Human low density lipoprotein (LDL, 100µg/ml) was preincubated with DMSO (0.1%, basal and control) or various concentrations of THP at 37°C for 10 minutes, and then CuSO4 was added, except for basal, and incubated for another 12 hours to determine the impact of THP on lipid peroxidation.
The impact of THP on lipid peroxidation is further assessed by evaluating its effect on the formation of TBARS (thiobarbituric acid-reactive substance) from LDL. Exposure of LDL to CuSO4 within 12 hours results in the peroxidation of LDL, as indicated by the increased content of TBARS (FIG. 3).

[2] = test system: guinea pig right ventricular strips; experiment: Ouabain-induced arrhythmia in electrically driven right ventricular strips; conditions: 10-20µM after 0.6-0.8µM ouabain
Protocol: The arrhythmia was then induced 5-10 minutes after. 10-20µM THP or its derivatives were administered to reverse the ouabain-induced arrhythmia. 6-7.
Referring to FIGs. […] The arrhythmia is then induced 5-10 minutes after.

[3] = Superoxide anion scavenging, xanthine/xanthine oxidase system; format: biochemical
[4] = test system: rats subjected to myocardial ischemia; experiment: Blood pressure and heart rate in rats subjected to 30 minutes coronary ligation; format: in vivo; conditions: intravenous, 3.5x10^-6 or 3.5x10^-5 g/kg
Protocol: (§1) Myocardial ischemia was performed by a temporary tightening of the silk ligature around the left main coronary artery. Reperfusion was achieved by releasing the tension applied to the ligature (operated groups). Sham operated animals underwent all surgical procedures, apart from the fact that the silk, passing around the left coronary artery, was not tied (sham groups). Animals were infused with a bolus of THP (3.5x10^-7, 3.5x10^-6, 3.5x10^-5 g/kg), L-NAME (N^∞-nitro-L-arginine methyl ester; 1x10^-3 g/kg) or vehicle (dimethyl sulfoxide/ NaCl 0.9%, 1:10^3; v/v) from a jugular vein 15 minutes before coronary occlusion. The coronary artery was occluded for 30 minutes or 5 minutes followed by 30 minutes reperfusion and with the animals then divided randomly in the following groups: (1) sham + vehicle; (2) sham + THP (3.5x10^-5g/kg); (3) operated + vehicle; (4) operated + THP (3.5x10^-7 g/kg); (5) operated + THP (3.5x10^-6 g/kg); (6) operated + THP (3.5x10^-5 g/kg); (7) operated + L-NAME (1x10^-3 g/kg) + THP (3.5x10^-5 g/kg). Before and during the ischemia or reperfusion period, heart rate (HR), blood pressure (BP) and ECG changes were recorded. Ventricular ectopic activity was evaluated according to the diagnostic criteria advocated in the Lambeth Convention. The incidence and duration of ventricular tachyarrhythmias, including ventricular tachycardia (VT) and ventricular fibrillation (VF), in surviving animals was determined. The Mann-Whitney rank-sum test was used to analyze the differences in the duration of VT and VF between vehicle and drug treated groups. The BP and HR changes between vehicle and drug treated rats in the arrhythmia study were analyzed by ANOVA (analysis of variance) followed by Bonferroni's test. The difference in the percentage incidence of VT, VF and mortality rate was analyzed with a Chi-square test. Table 2 Effect of THP on ischemia-induced arrhythmias in the in vivo anesthetized rat
No significant difference can be seen among vehicle and drug groups (3.5x10^-6 or 3.5x10^-5 g/kg, THP).

atria or ventricles = experiment: Action potential duration in atria or ventricles; conditions: 3-10µM, data not shown
Protocol: Moreover, 3-10µM THP prolongs the action potential duration in the atria or ventricles of both rats and guinea pigs (data not shown).

inward calcium current = conditions: Su MJ, et al., Eur. J. Pharmacol., 1994; cited from earlier work
plasma NO = experiment: Plasma NO release (NO/ozone chemiluminescence) after ischemia or ischemia-reperfusion; format: in vivo, rats; conditions: for NO (µmol/L) release, Ischemic / NO (µmol/L) release, Reperfused: Operated
Protocol: as §1
Cellular damage was evaluated by measuring the plasma LDH. Arterial blood samples were drawn from the carotid catheter at the end of ischemia or ischemia-reperfusion, collected in heparinized tubes. The blood was kept at 4°C until it was centrifuged at 2000 xg for 15 minutes. The plasma was recovered and aliquots were used for determination of LDH activity with a commercial kit from Sigma. The deproteinized plasma samples were frozen and kept until analysis. NO was measured by the NO/ozone chemiluminescence technique described in Yanu F. et al., (1997) Clin. Chem. 43:657-662. The difference in plasma NO and LDH were analyzed statistically using unpaired Student's t-test. Table 5 Effects of THP on LDH (U/L) release
Nitric oxide (NO) release is measured by the presence of nitrite (NO2^-) and nitrate (NO3^-) in the plasma from an animal with 30 minutes ischemia or 5 minutes followed by 30 minutes reperfusion. In sham animals, NO is measured to be 9.6±2.3 and 7.6±0.9µmol/L without and with THP pretreatment, respectively. In the operated animals, THP exerts a dramatically increase of plasma NO; at a dose of 3.5x10^-6 g/kg, there are 2- and 3.5-fold increases compared to that of the untreated (vehicle) ischemic or ischemic-reperfused animals, respectively (Table 6).

COc1cc2c(cc1OC)-c1c(O)c(OC)cc3c1C(C2)N(C)CC3 (single isomer, unassigned; (+)) [THP, (+)-Thaliporphine]
IC50 [1]: 15.7 µM | reversal of ouabain-induced arrhythmia [2]: effective in reversing the arrhythmia | EC50 [3]: 12.6 µM | diastolic blood pressure [4]: does not modify | heart rate (HR) [4]: does not modify | systolic blood pressure [4]: does not modify | action potential duration (atria or ventricles; atria or ventricles of guinea pigs): prolongs | action potential duration (atria or ventricles; atria or ventricles of rats): prolongs | inward calcium current (inward calcium current): enhance | increase of plasma NO compared to untreated (vehicle) ischemic animals (plasma NO; 3.5x10^-6 g/kg, ischemic): 2 fold | increase of plasma NO compared to untreated (vehicle) ischemic-reperfused animals (plasma NO; 3.5x10^-6 g/kg, ischemic-reperfused): 3.5 fold | NO (µmol/L) release, Ischemic (plasma NO; THP 3.5x10^-5 g/kg): 19.1 ± 5.5 µmol/L | NO (µmol/L) release, Reperfused (plasma NO; THP 3.5x10^-5 g/kg): 30.4 ± 1.9 µmol/L | NO (µmol/L) release, Ischemic (plasma NO; THP 3.5x10^-6 g/kg): 19.4 ± 4.7 µmol/L | NO (µmol/L) release, Reperfused (plasma NO; THP 3.5x10^-6 g/kg): 28.4 ± 4.3 µmol/L | NO (µmol/L) release, Ischemic (plasma NO; THP 3.5x10^-7 g/kg): 6.6 ± 0.6 µmol/L | NO (µmol/L) release, Reperfused (plasma NO; THP 3.5x10^-7 g/kg): 8.0 ± 1.7 µmol/L | NO (µmol/L) release, Non-ischemic (plasma NO; Sham-operated, THP 3.5x10^-5 g/kg): 7.6 ± 0.9 µmol/L
